Experimental data as given in patent publication US5334595A, “Pyrazoloquinolones as anticancer agents” (priority 1992, dated 1994).

Assays:
[1] = In vivo antitumor assay, B16(ip); parameters: species or system mice; details: mouse, in vivo, drug ip
Text: (§1) Mice: Inbred: C3H/He and NCR-nu; and Hybrids: B6D2F1 (C57BL/6 females×DBA/2 males, CD2F1 (Balb/c females×DBS/2 males) and B6C3fl (C57BL/6×C3H) were bred at Wayne State University from strains obtained from the Frederick Cancer Research Facility, Frederick, Maryland or purchased from commercial suppliers.
(§2) Tumors: Murine Tumor: P388 and an adriamycin-resistant (ADR) subline P388/ADR leukemia and the following transplantable solid tumors of mice were used for in vivo testing: B16 melanoma (B16), pancreatic ductal adenocarcinoma No. 03 (Pane 03), colon adenocarcinoma No. 38 (colo 38), lung carcinoma No. 12 (LC 12), mammary ductal adenocarcinoma No. 16/C (Mam16C) and an adriamycin-resistant subline Mam16C/ADR. Human tumor: A single human tumor, mammary carcinoma MX-1 was used for in vivo testing. All tumors are in the Developmental Therapeutics Program frozen tumor respository, maintained by the Biological Testing Branch, Frederick Maryland. Each has a detailed description, code identification number, and list of references at the National Tumor Repository. Murine tumors were maintained in the mouse strain of origin and were transplanted in the appropriate F1 hydrid (or the strain of origin) for therapy trials. Human mammary carcinoma MX-1 (MX1) was maintained as a subcutaneous implant in either athymic Swiss (Cr: NIH(S)-nu) or athymic random bred (NCR-nu) mice and transplanted in NCR-nu for therapy trials.
(§3) For P388 and P388/ADR leukemia studies the tumor cells were implanted either interperitoneally (IP) or intravenously (IV) on day zero and treatment was started on day one. For B16 melanoma (B16) studies, the tumor cells were implanted IP on day zero and treatment was started on day one. Titered controls were also included to facilitate the calculation of tumor cell kill. For mammary carcinoma MX-1 studies, tumors were implanted with 1) subcutaneously (sc) (14-mg fragment of sc donor tumor) in the axillary region or 2) under the subrenal capsule (SRC) (10×10×10 ocular micrometer unit fragment of sc donor tumor).
(§4) Quantitative end points used to assess antitumor activity included % Increased Life Span (% ILS), Tumor Cell Kill (Log10 kill), and Tumor Growth Inhibition (T/C). Long Term Survivors (45 or 60 day) were excluded from calculations of %ILS and Tumor Cell Kill.
(§5) Endpoints were calculated as follows: [formula] where Dt is the median day of death for treated and Dc is the median day of death for control groups. A % ILS ≥20 or ≥25 for P388 and B16 intraperitoneal models, respectively, is indicative of a significant degree of antitumor activity. A % ILS ≥75 or ≥50 for P388 and B16 intraperitoneal models, , respectively, is indicative of a high degree of antitumor activity and is the level used by National Cancer Institute to justify further development if other requirements are met (termed DN-2 level activity). Minimum quantitative activity limits for additional P388 models (e.g. P388/ADR and P388, IV) have not been defined.

B16 melanoma (B16) = assay: In vivo antitumor assay, B16(ip); parameters: species or system mice; details: drug ip; for ILS %: qd 1,5,9, exp SD-17, at dose of MTD; for Log Kill: qd 1,5,9, exp SD-17, log10
Text: as §1, §2, §3, §4, §5

[2] = In vivo antitumor assay, MXI(sc); parameters: species or system human; details: mouse, in vivo, drug ip, qd 1,5,9, exp SD-9
Text: as §1, §2, §3, §4
(§6) Tumors were measured with a caliper once or twice weekly (as needed) until either tumors exceeded 1600 mg or cure was assured. Tumor weights were estimated from two-dimensional measurements: Tumor Weight (mg)=(a×b^2) / 2, where a and b are the tumor length and width (ram) respectively. Measurements were carried out simultaneously in both treatment and control groups. When the control group tumors reached approximately 750-1500 mg in size (median of group), the median tumor weight of each group was determined (including zeros). The T/C value in percent is an indication of antitumor effectiveness. The % T/C was calculated from the following formula for solid murine tumor models: [formula] where T and C are median tumor weights of the treatment and control groups, respectively. […] A T/C value <10% is indicative of a high degree of antitumor activity and is the level used by National Cancer Institute to justify further development if other requirements are met (termed DN-2 level activity). By convention the T/C value for the mammary carcinoma MX-1 models is calculated by the parameter of change in tumor weight . The % T/C was calculated from the following formula for MX-1 models [formula] where ΔT and ΔC are the change in mean tumor weight of the test and control groups, respectively, and T (initial) is the initial mean tumor weight of the test group. […] A reproducible % T/C ≤10 is considered significant activity.

mammary carcinoma MX-1 = assay: In vivo antitumor assay, MXI(sc); parameters: species or system human; details: drug ip, qd 1,5,9, exp SD-9, change in tumor weight
Text: as §1, §2, §3, §4, §6

[3] = In vivo antitumor assay, Colo38(sc); parameters: species or system mice; details: mouse, in vivo
Text: as §1, §2
(§7) Chemotherapy: For pancreatic ductal adenocarcinoma No. 3, colon adenocarcinoma No. 38 (colo 38), lung carcinoma No. 12 LC 12) and both adriamycin-sensitive (RP) and-resistant (ADR) mammary ductal adenocarcinoma No. 16 (Mam16) tumors, bilateral tumor implants were used to help ensure a more uniform tumor burden per mouse (thus reducing the requirement for greater numbers of mice per group). The animals necessary to begin an experiment were pooled, implanted bilaterally s.c. on day zero with 30-60 mg tumor fragments using a 12-gauge trocar, and again pooled before randomization to the various treatment and control groups. Chemotherapy was started within three days after tumor implantation while the number of cells per mouse was relatively small (1×10^7 -1×10^8 cells).
as §4
(§8) Tumors were measured with a caliper once or twice weekly (as needed) until either tumors exceeded 1600 mg or cure was assured. Tumor weights were estimated from two-dimensional measurements: Tumor Weight (mg)=(a×b^2) / 2, where a and b are the tumor length and width (ram) respectively. Measurements were carried out simultaneously in both treatment and control groups. When the control group tumors reached approximately 750-1500 mg in size (median of group), the median tumor weight of each group was determined (including zeros). The T/C value in percent is an indication of antitumor effectiveness. The % T/C was calculated from the following formula for solid murine tumor models: [formula] where T and C are median tumor weights of the treatment and control groups, respectively. […] A T/C value <10% is indicative of a high degree of antitumor activity and is the level used by National Cancer Institute to justify further development if other requirements are met (termed DN-2 level activity). By convention the T/C value for the mammary carcinoma MX-1 models is calculated by the parameter of change in tumor weight .

[4] = system: colon adenocarcinoma No. 38 (colo 38); assay: In vivo antitumor assay, Colo38(sc); parameters: species or system mice
Text: as §1, §2, §7, §4, §8

[5] = drug iv, sc, iv, qd 3-16, exp 1038
[6] = qd 1,5,9, exp SD-17, MTD not achieved, maximum dose tested
[7] = drug iv, qd 3-4, bid 5,6,12-17, exp 1036
[8] = drug iv,sc: iv, qd 3-9, sc, qd 11-19, exp 1163

SMILES | MTD ([1]; qd 1,5,9, exp SD-17) [mg/kg] | ILS % (B16 melanoma (B16)) [%] | Log Kill (B16 melanoma (B16)) | MTD [2] [mg/kg] | T/C % (mammary carcinoma MX-1) [%] | MTD [1, 6] [mg/kg] | also measured
Cc1cc(-c2c(F)cc3c4nn(CCNCCO)c(=O)c-4cn(C4CC4)c3c2F)cc(C)n1 [Example 17] | 180 | 61 | 1.4 | 270 | 67 |  | 
Cc1cc(-c2c(F)cc3c4nn(CCN(C)C)c(=O)c-4cn(C4CC4)c3c2F)cc(C)n1.O=C(O)/C=C/C(=O)O [Example 1, 5-Cyclopropyl-6,8-difluoro-2,5-dihydro-2-[2-(dimethylamino)-ethyl]-7-(2,6-dimethyl-4-pyridinyl)-3H-pyrazolo[4,3-c]quinolin-3-one (E)-2-butendioate (1:1)] | 78 | 85 | 1.9 | 78 | 37 |  | MTD ([3]; drug iv, qd 3,7,11, exp 1038): 78 mg/kg; MTD [3, 5]: 58 mg/kg; Log Kill ([4]; drug iv, qd 3,7,11, exp 1038): 0.60; T/C % ([4]; drug iv, qd 3,7,11, exp 1038): 14%; Log Kill [4, 5]: 1.2; T/C % [4, 5]: 0%
Cc1cc(-c2c(F)cc3c4nn([C@H]5CC[C@H](N(C)C)CC5)c(=O)c-4cn(C4CC4)c3c2F)cc(C)n1 [Example 51b] |  | 47 | 1.0 |  |  | > 99 | MTD ([3]; drug iv, qd 3-4,15,17, bid 5.7, exp 1036, MTD not achieved, maximum dose tested): > 220 mg/kg; T/C % ([4]; drug iv, qd 3-4,15,17, bid 5.7, exp 1036): 13%
Cc1cc(-c2c(F)cc3c4nn(CCCN(C)C)c(=O)c-4cn(C4CC4)c3c2F)cc(C)n1 [Example 14] | 28 | 58 | 1.3 | 42 | 53 |  | MTD ([3]; drug iv, qd 3,12-14, exp 905): 133 mg/kg; Log Kill ([4]; drug iv, qd 3,12-14, exp 905): 0.54; T/C % ([4]; drug iv, qd 3,12-14, exp 905): 38%
Cc1cc(-c2c(F)cc3c4nn([C@H]5CC[C@@H](N(C)C)CC5)c(=O)c-4cn(C4CC4)c3c2F)cc(C)n1 [Example 51a] |  | 29 | 0.67 |  |  | > 15 | MTD [3, 7]: 63 mg/kg; T/C % [4, 7]: 39%
Cc1cc(-c2c(F)cc3c4nn([C@H]5CC[C@@H](N)CC5)c(=O)c-4cn(C4CC4)c3c2F)cc(C)n1 [Example 56a, 2-(Cis-4-Aminocyclohexyl)-5-cyclopropyl-6,8-difluoro-2,5-dihydro-7-(2,6-dimethyl-4-pyridinyl)-3H-pyrazolo-[4,3-c]quinolin-3-one] |  |  |  |  |  |  | MTD [3, 8]: 137 mg/kg; T/C % [4, 8]: 40%
